From ChEMBL document CHEMBL1201862, “PubChem BioAssay data set” (2004)
Activity calls are given as the source filed them. For most assays here, no stated cut-off is given here; in the data, actives have a measured EC50 and inactives only a lower limit.

Columns and labels:
[1] = test system: Streptococcus sp. 'group A'; assay: Streptococcus pyogenes SK(-)GAS viability under kanamycin – luminescence, BacTiterGlo, confirmation, counter-screen for streptokinase expression inhibitor project, dose response (AID 1900); type: functional, organism-based
Beta-galactosidase = Beta-galactosidase (Escherichia coli, UniProt Q8VNN2); assay: detection-enzyme interference by beta-gal modulators – biochemical, E. coli enzyme, set 3, artefact control for CCR6 antagonist project, dose response (AID 504712); type: functional
[2] = NIH-3T3 fibroblast cytotoxicity, dose response, cytotoxicity control, cell-based, fluorescence, Alamar Blue, secondary assay (AID 2327); type: functional;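 further: NIH-3T3 mouse fibroblasts cultured with fluconazole at 8 µg/mL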
Streptokinase A = biological target: T1, Streptokinase A (Streptococcus pyogenes serotype M1, UniProt P10520); assay: viability-normalized secreted streptokinase activity reduction – plasminogen activation absorbance, OD405, dose response (AID 1914); type: functional, Streptococcus pyogenes M1 GAS;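 further: secreted streptokinase activity via plasminogen activation per viability signal from cell pellet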
T1 sequence (P10520 whole entry): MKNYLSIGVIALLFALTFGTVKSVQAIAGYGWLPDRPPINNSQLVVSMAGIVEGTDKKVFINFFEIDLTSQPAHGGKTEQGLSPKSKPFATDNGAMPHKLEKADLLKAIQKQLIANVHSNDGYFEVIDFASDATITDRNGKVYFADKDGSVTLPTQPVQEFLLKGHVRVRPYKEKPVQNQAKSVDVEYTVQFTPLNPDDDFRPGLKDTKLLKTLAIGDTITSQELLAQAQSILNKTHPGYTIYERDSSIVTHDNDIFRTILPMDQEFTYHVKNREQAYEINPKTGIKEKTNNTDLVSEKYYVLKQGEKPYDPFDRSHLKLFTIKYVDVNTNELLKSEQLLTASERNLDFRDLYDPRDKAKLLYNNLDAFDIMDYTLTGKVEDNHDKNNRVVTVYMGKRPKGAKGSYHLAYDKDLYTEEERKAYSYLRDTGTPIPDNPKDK

Streptococcus = assay: GAS UMAA2166 growth inhibition – luminescence, BacTiterGlo, counter-screen for streptokinase expression inhibitor project, dose response (AID 1915); type: functional, organism-based;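 further: potency for reduction of bacterial viability or growth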
[3] = fluconazole-exposed Candida albicans growth modulators – fluorescence, retest, confirmation (AID 2467); type: functional, cell-based
HeLa = assay: viability loss in HeLa cells – cell-based, 24 h, cherry-picked samples, cytotoxicity control, dose response (AID 504726); type: functional; conditions: Homo sapiens;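 further: potency for cytotoxicity as loss of luminescence signal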
[4] = viability of PTEN-deleted HCT116 cells – cell-based, HCT116 PTEN knockout, dose response (AID 1047); type: functional;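 further: HCT116 colon tumor cells with PTEN knocked out; cells exposed to compound for 60 hours before readout; potency for loss of cell viability measured by luminescence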
[5] = biological target: T2, Heat shock factor protein 1 (Mus musculus, UniProt P38532); assay: enhancement of HSF1-driven luciferase signal – cell-based, NIH3T3, luminescence, dose retest, confirmation (AID 435004); type: functional;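 further: stress induced by proteasome inhibitor MG132 added 30 min after compound; luciferase reporter driven by HSF1 response element in NIH3T3 cells; actives raise luminescence as potentiators of the MG132 stress response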
T2 sequence (P38532 whole entry): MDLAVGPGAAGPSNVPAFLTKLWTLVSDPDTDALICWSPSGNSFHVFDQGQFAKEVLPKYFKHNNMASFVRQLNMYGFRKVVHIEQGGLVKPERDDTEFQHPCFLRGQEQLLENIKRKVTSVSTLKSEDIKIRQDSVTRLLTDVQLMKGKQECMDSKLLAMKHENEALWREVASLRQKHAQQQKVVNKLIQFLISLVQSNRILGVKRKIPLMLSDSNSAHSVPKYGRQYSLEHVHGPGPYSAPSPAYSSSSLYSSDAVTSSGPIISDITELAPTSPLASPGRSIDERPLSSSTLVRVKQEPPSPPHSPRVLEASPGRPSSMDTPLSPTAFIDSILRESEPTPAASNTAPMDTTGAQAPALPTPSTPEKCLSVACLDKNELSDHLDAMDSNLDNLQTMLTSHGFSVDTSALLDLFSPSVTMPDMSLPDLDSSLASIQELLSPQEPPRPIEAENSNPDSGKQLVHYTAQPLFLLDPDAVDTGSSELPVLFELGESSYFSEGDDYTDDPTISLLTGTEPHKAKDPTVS

[6] = viability of HCT116 lacking mutant beta-catenin – cell-based, human colon tumor, dose response (AID 1045); type: functional;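 further: HCT116 colon tumor cells with beta catenin knocked out; cells exposed to compound for 60 hours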
ORF 73 = ORF 73 (Human herpesvirus 8, UniProt O40947); assay: KSHV LANA DNA-binding disruption – biochemical, fluorescence polarization, cherry-picked samples, dose response (AID 504725); set-up: species or system Human gammaherpesvirus 8;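 further: fluorescence polarization of a labeled DNA duplex reporting LANA DNA binding; potency is for inhibitors that block LANA binding to the DNA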
Coagulation factor XII = biological target: T3, Coagulation factor XII (Homo sapiens, UniProt P00748); assay: activated coagulation factor XII inhibitor potency, concentration-effect curve, cell-free (AID 716); type: functional
T3 sequence (P00748 whole entry): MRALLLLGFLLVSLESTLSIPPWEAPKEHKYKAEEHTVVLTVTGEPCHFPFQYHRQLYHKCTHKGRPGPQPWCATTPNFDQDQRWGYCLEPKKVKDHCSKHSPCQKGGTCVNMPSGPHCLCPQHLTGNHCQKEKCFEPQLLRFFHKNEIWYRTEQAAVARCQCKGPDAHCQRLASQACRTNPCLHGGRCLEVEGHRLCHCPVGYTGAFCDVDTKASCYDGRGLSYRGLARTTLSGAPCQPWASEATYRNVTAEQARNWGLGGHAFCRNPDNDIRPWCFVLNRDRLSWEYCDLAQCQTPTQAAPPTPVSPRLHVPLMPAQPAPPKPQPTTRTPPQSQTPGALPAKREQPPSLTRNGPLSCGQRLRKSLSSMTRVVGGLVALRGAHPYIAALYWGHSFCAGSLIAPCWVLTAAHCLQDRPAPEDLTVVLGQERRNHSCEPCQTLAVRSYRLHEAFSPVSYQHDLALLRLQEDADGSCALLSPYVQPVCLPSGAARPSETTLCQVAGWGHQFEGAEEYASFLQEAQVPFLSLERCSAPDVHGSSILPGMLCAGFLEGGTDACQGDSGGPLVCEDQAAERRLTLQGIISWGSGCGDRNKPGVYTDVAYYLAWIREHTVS

[7] = Luminescence Cell-Based Dose Response HTS to Identify Inhibitors of 5'UTR Stem-Loop Driven Prion Protein mRNA Translation in H4 Neuroglioblastoma Cells. [Related pubchem assays: 1827 (Project Summary), 1813 (Primary HTS)]; type: functional
[8] = biological target: G-protein coupled receptor 55 (Homo sapiens, UniProt Q9Y2T6); assay: inhibition of LPI-stimulated GPR55 beta-arrestin translocation – imaging, U2OS, beta-arrestin-GFP, LPI agonist, primary screen (AID 2013); type: functional;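 further: antagonist potency measured as reduced agonist-driven arrestin aggregation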
[9] = alpha-synuclein stem-loop luciferase translation blockers – H4 neuroglioma cells, luminescence, confirmation (AID 1988); type: functional, cell-based
[10] = luciferase reporter signal suppression in cells – H4 neuroglioma cells, luminescence, dose response (AID 1990); type: functional, cell-based
[11] = biological target: G-protein coupled receptor 35 (Homo sapiens, UniProt Q9HC97); assay: inhibition of zaprinast-stimulated GPR35 beta-arrestin translocation – imaging, U2OS, beta-arrestin-GFP, zaprinast agonist, primary screen (AID 2058); type: functional;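 further: antagonist potency meaning inhibition of agonist-induced arrestin redistribution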
Sequence of G-protein coupled receptor 35 (Q9HC97 whole entry): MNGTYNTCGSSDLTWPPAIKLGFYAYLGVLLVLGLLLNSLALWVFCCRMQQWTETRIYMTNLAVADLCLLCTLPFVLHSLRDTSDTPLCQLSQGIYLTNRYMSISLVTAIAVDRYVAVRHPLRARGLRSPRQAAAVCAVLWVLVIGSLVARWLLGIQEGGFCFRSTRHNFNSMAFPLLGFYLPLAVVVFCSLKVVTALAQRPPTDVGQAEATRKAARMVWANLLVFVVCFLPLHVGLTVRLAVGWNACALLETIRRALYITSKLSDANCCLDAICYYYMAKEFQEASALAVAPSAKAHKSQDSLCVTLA

Sequence of Beta-galactosidase (Q8VNN2 whole entry): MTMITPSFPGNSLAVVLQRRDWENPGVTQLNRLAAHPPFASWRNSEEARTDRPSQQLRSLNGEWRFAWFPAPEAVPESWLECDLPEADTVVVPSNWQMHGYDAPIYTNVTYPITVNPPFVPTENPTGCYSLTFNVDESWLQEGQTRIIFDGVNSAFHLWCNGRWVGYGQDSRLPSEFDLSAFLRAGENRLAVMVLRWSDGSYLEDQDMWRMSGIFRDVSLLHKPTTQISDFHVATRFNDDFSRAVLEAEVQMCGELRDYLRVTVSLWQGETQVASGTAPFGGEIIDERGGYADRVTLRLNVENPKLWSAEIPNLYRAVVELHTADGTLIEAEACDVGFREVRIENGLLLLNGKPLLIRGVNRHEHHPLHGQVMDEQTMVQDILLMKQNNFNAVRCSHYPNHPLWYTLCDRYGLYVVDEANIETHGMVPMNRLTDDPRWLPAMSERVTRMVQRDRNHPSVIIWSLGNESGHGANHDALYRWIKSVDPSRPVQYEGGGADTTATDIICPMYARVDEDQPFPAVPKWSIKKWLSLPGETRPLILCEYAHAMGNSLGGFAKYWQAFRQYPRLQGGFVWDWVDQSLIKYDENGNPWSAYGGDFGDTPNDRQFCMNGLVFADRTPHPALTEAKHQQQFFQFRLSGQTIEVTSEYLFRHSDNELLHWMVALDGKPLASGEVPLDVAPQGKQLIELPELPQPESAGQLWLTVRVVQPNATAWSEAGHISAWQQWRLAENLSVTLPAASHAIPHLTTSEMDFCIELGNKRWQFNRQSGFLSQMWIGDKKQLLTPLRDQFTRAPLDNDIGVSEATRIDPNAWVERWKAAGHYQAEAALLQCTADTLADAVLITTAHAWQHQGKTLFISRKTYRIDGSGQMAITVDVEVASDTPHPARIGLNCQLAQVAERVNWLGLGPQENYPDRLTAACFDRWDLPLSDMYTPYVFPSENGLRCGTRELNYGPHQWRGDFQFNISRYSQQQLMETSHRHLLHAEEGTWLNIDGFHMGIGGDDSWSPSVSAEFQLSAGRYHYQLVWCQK
Sequence of ORF 73 (O40947 whole entry): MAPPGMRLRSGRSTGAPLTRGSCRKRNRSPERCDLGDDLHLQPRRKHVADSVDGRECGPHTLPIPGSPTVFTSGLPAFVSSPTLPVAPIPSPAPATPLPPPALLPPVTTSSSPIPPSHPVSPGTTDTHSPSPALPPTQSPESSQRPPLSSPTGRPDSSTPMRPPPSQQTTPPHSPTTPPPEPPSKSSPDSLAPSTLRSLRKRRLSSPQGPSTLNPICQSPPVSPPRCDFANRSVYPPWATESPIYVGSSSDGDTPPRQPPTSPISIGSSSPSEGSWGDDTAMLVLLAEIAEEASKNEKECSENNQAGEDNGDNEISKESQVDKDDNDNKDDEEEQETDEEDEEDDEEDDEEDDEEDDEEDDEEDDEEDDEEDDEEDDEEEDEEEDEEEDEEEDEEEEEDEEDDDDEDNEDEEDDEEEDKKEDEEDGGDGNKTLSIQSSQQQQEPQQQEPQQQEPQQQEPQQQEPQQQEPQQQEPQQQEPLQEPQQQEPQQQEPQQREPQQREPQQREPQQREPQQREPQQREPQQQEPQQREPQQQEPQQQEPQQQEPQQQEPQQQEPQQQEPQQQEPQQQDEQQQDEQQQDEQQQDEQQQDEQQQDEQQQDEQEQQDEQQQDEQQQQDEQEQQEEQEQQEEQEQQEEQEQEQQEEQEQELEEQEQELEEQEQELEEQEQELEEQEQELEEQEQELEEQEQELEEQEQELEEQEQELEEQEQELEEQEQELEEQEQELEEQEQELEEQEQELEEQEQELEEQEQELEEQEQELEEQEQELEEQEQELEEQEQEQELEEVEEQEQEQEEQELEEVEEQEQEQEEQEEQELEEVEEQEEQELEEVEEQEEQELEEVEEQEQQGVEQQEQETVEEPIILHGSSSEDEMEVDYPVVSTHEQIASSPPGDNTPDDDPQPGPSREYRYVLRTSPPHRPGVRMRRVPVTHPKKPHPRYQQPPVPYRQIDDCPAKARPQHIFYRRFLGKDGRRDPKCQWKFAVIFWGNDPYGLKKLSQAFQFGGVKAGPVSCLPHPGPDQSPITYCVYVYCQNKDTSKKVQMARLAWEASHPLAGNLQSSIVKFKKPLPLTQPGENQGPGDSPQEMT
Sequence of G-protein coupled receptor 55 (Q9Y2T6 whole entry): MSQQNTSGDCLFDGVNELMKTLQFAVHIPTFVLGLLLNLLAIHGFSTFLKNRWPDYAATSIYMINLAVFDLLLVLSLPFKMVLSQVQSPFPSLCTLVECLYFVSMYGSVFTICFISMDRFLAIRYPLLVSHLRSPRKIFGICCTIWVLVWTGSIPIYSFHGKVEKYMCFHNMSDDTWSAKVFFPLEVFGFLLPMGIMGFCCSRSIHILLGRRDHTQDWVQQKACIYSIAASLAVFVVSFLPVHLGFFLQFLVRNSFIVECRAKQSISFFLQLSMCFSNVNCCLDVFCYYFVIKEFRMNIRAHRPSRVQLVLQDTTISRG

In the case of `Fc1cccc2sc(Nc3nnc(-c4ccco4)o3)nc12`, the EC50 [1] is reported as 0.632 µM (active), the IC50 (Beta-galactosidase) is reported as > 66.6 µM (inactive) and the EC50 [2] is reported as 79.4 µM (active). The EC50 (Streptokinase A) was > 150 µM (not active), the EC50 (Streptococcus) was 11.2 µM (active) and the EC50 [3] was 2.43 µM (active).
In the case of `O=C(Nc1ccccc1F)C(=Cc1sc(N2CCOCC2)nc1-c1ccccc1)C(=O)Nc1ccccc1F`, the AC50 (HeLa) is reported as 292 µM (active), the EC50 [4] is reported as 11.9 µM (active) and the EC50 [5] is reported as > 260 µM (inactive). For the same compound, the EC50 [6] was 9.63 µM (active) and the AC50 (ORF 73) was 16.4 µM (active).
For `COCCn1c(SCC(N)=O)nnc1-c1c[nH]c2ccccc12`, the IC50 (Coagulation factor XII) was > 50 µM (inactive).
In the case of `Oc1ccc(/C=N/Nc2nc(-c3ccccc3F)nc3ccccc23)c(O)c1`, the EC50 [7] is reported as 18.4 µM (active), the IC50 [8] is reported as 1.47 µM (active) and the EC50 [9] is reported as 6.7 µM (active). For the same compound, the EC50 [10] was 23.2 µM (active) and the IC50 [11] was 3.08 µM (active).
